Data taken from patent US20030105048A1, “Oligobenzimidazole derivatives and their use as DNA transfecting agents” (priority 1999, published 2003).

Experiments:
DNA plasmid = experiment: Agarose gel electrophoresis of DNA plasmid complexed with derivative or cationic lipid; assay type: binding; settings: increasing amounts per μg of DNA; revealed with ethidium bromide
Description: For this, an agarose gel of a DNA plasmid mixed with increasing amounts of derivative (1) or (2) according to the invention was prepared (see FIG. 4). […] Two bands could thus be observed by virtue of the specific spectral absorption properties of the derivatives according to the present invention:
It is observed that the DNA migrates in an identical manner to the naked DNA, irrespective of the concentration of derivative 20 according to the invention.

mouse muscles = experiment: In vivo intramuscular transfection of plasmid pXL3031 (luciferase expression) with or without electrotransfer; design: species or system C57B16 mice; settings: 4 μg of DNA/muscle, 7 days
Description: The plasmid used is the same as the one described above for Example 5 (pXL3031). Similarly, the cytofecting solutions are prepared in the same way as in Example 5.
25 μl of solutions of derivative (1)/DNA complexes are injected intramuscularly to C57B16 mice, at a rate of 4 μg of DNA/mouse muscle.
The transfection efficacy is evaluated 7 days 5 after transfection by measuring the expression of luciferase according to the recommendations given for using the Promega kit (Luciferase Assay System). The muscles are ground in 1.5 ml of lysis buffer (with protease inhibitors). After assaying the luciferase activity on 10 μl, the results are expressed as RLU/10 μl/10 sec.
The in vivo luciferase activity results in mouse muscles, expressed in RLU/10 μl/10 sec, are collated in the table below: […]

HeLa cells = experiment: In vitro transfection of plasmid pXL3031 (luciferase expression) in the presence and absence of serum; assay type: cell-based; settings: 48 hours after transfection
Description: The plasmid used The DNA used is the plasmid pXL3031 (see FIG. 7) as a solution in a mixture of 5% dextrose and 10 mM sodium chloride at a concentration of 0.5 mg/ml or 1.0 mg/ml. This plasmid contains the luc gene encoding luciferase under the control of the cytomegalovirus P/E CMV promoter. Its size is 3671 bp. The plasmid pXL3031 was purified according to the methods described in patent application WO 97/35002.
The nucleic acid solutions are diluted to 20 μg/ml in physiological saline (0.15 M sodium chloride).
The oligobenzimidazole derivative (2) according to the invention is dissolved in water to a concentration ranging from 40 to 160 μmol and mixed, volume for volume, with the DNA solution. The final saline concentration is 75 mmol.
HeLa cells are cultured under suitable conditions on 24-well microplates (2 cm^2/well) and are transfected while they are in the exponential growth phase and at 50-70% of confluence.
The cells are washed with twice 0.5 cm^3 of medium free of seric proteins and are regrown either in serum-free medium (transfection in the absence of serum) or in whole medium (transfection in the presence of serum). 0.05 cm^3 of cytofecting mixture (0.5 μg of DNA/well) are added to the cells (3 wells/DNA-vector condition). When the cells are transfected in the absence of serum, the growth medium is supplemented, 2 hours after the transfection, with a suitable amount of serum.
The transfecting efficacy is evaluated 48 hours after transfection by measuring the expression of luciferase according to the recommendations given for using the Promega kit (“Luciferase Assay System”). The toxicity of the cytofecting mixtures is estimated by measuring the protein concentrations in cell lysates.
The in vitro luciferase activity results relative to the proteins expressed in RLU/5 μl/10 s/μg of protein (written more simply as RLU/μg of protein, “RLU” meaning “relative light unit”) are given in the table below: […]

CCCCCCCCCCCCCCCCCCNC(=O)Oc1ccc(-c2nc3ccc(-c4nc5ccc(N6CCN(C)CC6)cc5[nH]4)cc3[nH]2)cc1 [Derivative (1), 4-[6-(4-methyl-1-piperazinyl)-1H,3′H-[2,5′]bisbenzimidazol-2′-yl]-1-octadecylcarbamoyloxy phenyl]
electrophoretic mobility of complexes with DNA on agarose gel (DNA plasmid): same electrophoretic mobility properties as the naked DNA
in vivo luciferase activity in mouse muscles (mouse muscles; 0.2 nmol/μg of DNA, with electrotransfer): 1.14 E+07 RLU/10 μl/10 sec
in vivo luciferase activity in mouse muscles (mouse muscles; 0.2 nmol/μg of DNA, without electrotransfer): 3.45 E+04 RLU/10 μl/10 sec
in vivo luciferase activity in mouse muscles (mouse muscles; 0.5 nmol/μg of DNA, with electrotransfer): 2.19 E+07 RLU/10 μl/10 sec
in vivo luciferase activity in mouse muscles (mouse muscles; 0.5 nmol/μg of DNA, without electrotransfer): 1.67 E+04 RLU/10 μl/10 sec
in vivo luciferase activity in mouse muscles (mouse muscles; 1 nmol/μg of DNA, with electrotransfer): 1.82 E+07 RLU/10 μl/10 sec
in vivo luciferase activity in mouse muscles (mouse muscles; 1 nmol/μg of DNA, without electrotransfer): 1.06 E+04 RLU/10 μl/10 sec

CCCCCCCCCCCCCCN(CCCCCCCCCCCCCC)C(=O)CNC(=O)CNCCN(CCN)CCN [cationic lipid, reference compound]
electrophoretic mobility of complexes with DNA on agarose gel (DNA plasmid): varies with the amount of cationic lipid present with the DNA

CCCCCCCCCCCCNC(=O)Oc1ccc(-c2nc3ccc(-c4nc5ccc(N6CCN(C)CC6)cc5[nH]4)cc3[nH]2)cc1 [Derivative (2), 4-[6-(4-methyl-1-piperazinyl)-1H,3′H-[2,5′]bisbenzimidazol-2′-yl]-1-dodecylcarbamoyloxy phenyl]
electrophoretic mobility of complexes with DNA on agarose gel (DNA plasmid): same electrophoretic mobility properties as the naked DNA
in vitro luciferase activity (HeLa cells; 4 nmol/μg of DNA, + serum): 9.8 E+02 RLU/μg of protein
in vitro luciferase activity (HeLa cells; 4 nmol/μg of DNA, absence of serum): 1.3 E+03 RLU/μg of protein
in vitro luciferase activity (HeLa cells; 8 nmol/μg of DNA, + serum): 4.6 E+02 RLU/μg of protein
in vitro luciferase activity (HeLa cells; 8 nmol/μg of DNA, absence of serum): 1.7 E+03 RLU/μg of protein
in vitro luciferase activity (HeLa cells; 10 nmol/μg of DNA, + serum): 1.1 E+02 RLU/μg of protein
in vitro luciferase activity (HeLa cells; 10 nmol/μg of DNA, absence of serum): 1.7 E+03 RLU/μg of protein
